According to patent US20260199273A1, “Compounds for the Treatment of Neuromuscular Disorders” (NMD PHARMA A/S, priority 2022, published 2026):

How the values were obtained:
CIC-1 ion channel = target: T1, CIC-1 ion channel (Rattus norvegicus, UniProt P35524); assay: Electrophysiological measurement of compound inhibition of CIC-1 in rat muscle (Gm in soleus fibres, three micro-electrodes); assay type: cell-based; settings: Gm in individual fibres of whole rat soleus muscles, approx. 30° C., four increasing compound concentrations; read-out: Potency Range (EC50, inhibition of CIC-1 ion channel)
T1 construct: from tissue; host or cells: whole soleus muscle of 12-14 week old Wistar rats
T1 sequence (P35524 1-994): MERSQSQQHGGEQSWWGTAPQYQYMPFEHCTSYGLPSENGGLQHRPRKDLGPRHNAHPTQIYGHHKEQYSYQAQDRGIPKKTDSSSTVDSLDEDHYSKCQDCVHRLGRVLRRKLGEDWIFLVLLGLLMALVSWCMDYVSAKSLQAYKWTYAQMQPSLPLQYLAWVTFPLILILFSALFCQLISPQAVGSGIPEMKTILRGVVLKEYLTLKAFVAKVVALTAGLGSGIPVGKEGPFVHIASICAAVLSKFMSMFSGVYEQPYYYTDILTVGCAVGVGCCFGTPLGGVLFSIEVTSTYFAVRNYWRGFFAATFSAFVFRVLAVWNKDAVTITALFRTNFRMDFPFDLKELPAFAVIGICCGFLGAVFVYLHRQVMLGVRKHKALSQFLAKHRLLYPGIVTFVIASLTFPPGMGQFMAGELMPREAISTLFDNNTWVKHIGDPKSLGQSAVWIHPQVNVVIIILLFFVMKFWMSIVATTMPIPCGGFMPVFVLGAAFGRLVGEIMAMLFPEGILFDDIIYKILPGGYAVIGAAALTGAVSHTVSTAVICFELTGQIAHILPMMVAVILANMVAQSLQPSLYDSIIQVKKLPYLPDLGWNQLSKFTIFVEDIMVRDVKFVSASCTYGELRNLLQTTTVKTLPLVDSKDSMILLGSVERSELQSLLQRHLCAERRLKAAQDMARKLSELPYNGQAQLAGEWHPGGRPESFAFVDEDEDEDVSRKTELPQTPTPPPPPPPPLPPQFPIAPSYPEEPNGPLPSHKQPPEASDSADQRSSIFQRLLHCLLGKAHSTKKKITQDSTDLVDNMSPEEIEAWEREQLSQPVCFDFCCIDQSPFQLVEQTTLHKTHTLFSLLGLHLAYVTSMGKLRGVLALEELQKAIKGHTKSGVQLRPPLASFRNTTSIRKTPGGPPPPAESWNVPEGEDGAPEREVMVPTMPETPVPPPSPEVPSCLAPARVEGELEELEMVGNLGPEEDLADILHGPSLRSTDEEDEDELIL
Procedure: Apparent CIC-1 affinity was reported by the concentration of compound at which 50% of the compound's full inhibition of CIC-1 was observed (EC50) (see also WO2019/115777).
Experimentally, Gm was measured in individual fibres of whole rat soleus muscles using a three micro-electrodes technique described in this example and in full detail elsewhere (Riisager et al., Determination of cable parameters in skeletal muscle fibres during repetitive firing of action potentials. Journal of Physiology, 2014, 592, 4417-4429). Briefly, intact rat soleus muscles were dissected out from 12-14 week old Wistar rats and placed in an experimental chamber that was perfused with a standard Krebs Ringer solution containing 122 mM NaCl, 25 mM NaHCO3, 2.8 mM KCl, 1.2 mM KH2PO4, 1.2 mM MgSO4, 1.3 mM CaCl2, 5.0 mM D-glucose. During experiments, the solution was kept at approx. 30° C. and continuously equilibrated with a mixture of 95% O2 and 5% CO2, pH ~7.4. The experimental chamber was placed in Nikon upright microscope that was used to visualize individual muscle fibres and the three electrodes (glass pipettes filled with 2 M potassium citrate). For Gm measurements, the electrodes were inserted into the same fibre with known inter-electrode distances of 0.35-0.5 mm (V1-V2, X1) and 1.1-1.5 mm (V1-V3, X3). The membrane potential of the impaled muscle fibre was recorded by all electrodes. Two of the electrodes were furthermore used to inject 50 ms current pulses of −30 nA. […] The steady state voltage deflection at each distance was divided by the magnitude of current injected (−30 nA) and the resulting transfer resistances were plotted against inter-electrode distance and the data was fitted to a mono-exponential function from which Gm could be calculated using linear cable theory.
To establish a dose response relationship, Gm was first determined in 10 muscle fibres in the absence of compound and then at four increasing compound concentrations with Gm determinations in 5-10 fibres at each concentration. The average Gm values at each concentration were plotted against compound concentration and the data was fitted to sigmoidal function to obtain an EC5o value.

[1] = tested on: isolated rat soleus nerve-muscle preparations; assay: Measurement of force in an in vitro model: recovery of nerve-stimulated contractile force after tubocurarine; settings: 40 min, after 40 mins of compound exposure, tubocurarine (115 nM) for 90 minutes, read-out: Point increase (%): percentage increase of initial force that was restored; for activation at 10 µM: 10 μM of test compound; for activation at 50 µM: 50 μM of test compound
Procedure: In one aspect, the invention relates to a method for recovery of force in muscles with neuromuscular dysfunction, said method comprising administering a compound or a composition as defined herein to a subject in need thereof. The term “recovery of force in muscles with neuromuscular dysfunction” as used herein refers to the ability of a compound to recover contractile force in nerve-stimulated healthy rat muscle after exposure to submaximal concentration (115 nM) of tubocurarine for 90 minutes.
Recovery of force is quantified as the percentage of the force prior to tubocurarine that is recovered after addition of the compound. In one embodiment, said recovery of force is >5%, such as >10%, such as >15%, such as >20%, such as >25%, such as >30%, such as >35%.
The current disclosure relates to compounds that inhibit CIC-1 ion channels and increase muscle excitability and thereby improve muscle function in clinical conditions where muscle activation is failing. Such conditions result in loss of contractile function of skeletal muscle, weakness and excessive fatigue. In this series of experiments the compounds were tested for their ability to restore contractile function of isolated rat muscle when the neuromuscular transmission had been compromised akin to neuromuscular disorders.
Experimentally, soleus muscles from 4-5 week old rats were isolated with the motor nerve remaining attached. The nerve-muscle preparations were mounted in experimental setups that enabled electrical stimulation of the motor nerve. Stimulation of the motor nerve led to activation of the muscle fibres and ensuing force production that was recorded. The nerve-muscle preparations were also in these experiments incubated in the standard Krebs Ringer (see example 15) and the solution was heated to 30° C. and continuously equilibrated with a mixture of 95% O2 and 5% CO2, pH ~7.4.
After mounting the nerve-muscle preparation in the experimental setup, the contractile function of the muscle was initially assessed under the control conditions. Sub-maximal concentration of tubocurarine (115 nM), an acetylcholine receptor antagonist, was then added to the experimental bath to impose partial inhibition of the ability of the motor nerve to activate the muscle fibres. The experimental condition mimics the failing neuromuscular transmission in a range of neuromuscular disorders. After addition of tubocurarine the contractile force declined over the next 90 minutes to 10-50% of the control force. The test compound was then added to obtain the required compound concentration in the bath and the contractile force recovered was measured. To quantify the ability of the compound to restore force the percentage of the initial force that was restored was determined after 40 mins of compound exposure and the point increase is reported in Tables 3 to 7.

Structure (SMILES) | EC50 (CIC-1 ion channel) [µM] | activation at 10 µM [1] [%] | activation at 50 µM [1] [%]
O=C(O)c1c(F)c(Cl)cc2c1CCCC2 [Compound A-26, 3-Chloro-2-fluoro-5,6,7,8-tetrahydronaphthalene-1-carboxylic acid] | 0.2 to 2 | 52 | –
O=C(O)c1c(Cl)c(F)cc2c1CCCC2 [Compound A-27, 2-chloro-3-fluoro-5,6,7,8-tetrahydronaphthalene-1-carboxylic acid] | 2 to 10 | 38 | –
Cc1cc2c(c(C(=O)O)c1Cl)CCCC2 [Compound A-28, 2-chloro-3-methyl-5,6,7,8-tetrahydronaphthalene-1-carboxylic acid] | 2 to 10 | – | 39
COc1c(Cl)cc2c(c1C(=O)O)C1CCC2CC1 [Compound A-29, 5-Chloro-4-methoxytricyclo[6.2.2.0^2,7]dodeca-2,4,6-triene-3-carboxylic acid] | 2 to 10 | – | 42
O=C(O)c1c(Cl)c(Cl)cc2c1CCCC2 [Compound A-30, 2,3-Dichloro-5,6,7,8-tetrahydronaphthalene-1-carboxylic acid] | 0.2 to 2 | 45 | –
COc1c(Cl)cc2c(c1C(=O)O)SCCC2 [Compound A-31, 6-chloro-7-methoxy-3,4-dihydro-2H-1-benzothiopyran-8-carboxylic acid] | 0.2 to 2 | 48 | –
CSc1c(Cl)cc2c(c1C(=O)O)CCCC2 [Compound A-32, 3-Chloro-2-(methylsulfanyl)-5,6,7,8-tetrahydronaphthalene-1-carboxylic acid] | 0.2 to 2 | 24 | –
Cc1c(Cl)cc2c(c1C(=O)O)CCCCC2 [Compound A-33, 3-Chloro-2-methyl-6,7,8,9-tetrahydro-5H-benzo[7]annulene-1-carboxylic acid] | 2 to 10 | 17 | –
C=Cc1c(Cl)cc2c(c1C(=O)O)CCCC2 [Compound A-35, 3-Chloro-2-ethenyl-5,6,7,8-tetrahydronaphthalene-1-carboxylic acid] | 0.2 to 2 | 16 | –
O=C(O)c1c(F)c(Cl)cc2c1OCCC2 [Compound A-36, 6-Chloro-7-fluoro-3,4-dihydro-2H-1-benzopyran-8-carboxylic acid] | 2 to 10 | 43 | –
O=C(O)c1c(Cl)c(F)cc2c1OCCC2 [Compound A-37, 7-Chloro-6-fluoro-3,4-dihydro-2H-1-benzopyran-8-carboxylic acid] | 2 to 10 | – | 48
O=C(O)c1c(F)c(Cl)cc2c1SCCC2 [Compound A-38, 6-Chloro-7-fluoro-3,4-dihydro-2H-1-benzothiopyran-8-carboxylic acid] | 0.2 to 2 | 48 | –
O=C(O)c1c(F)c(Cl)cc2c1CCCO2 [Compound A-39, 7-Chloro-6-fluoro-3,4-dihydro-2H-1-benzopyran-5-carboxylic acid] | 0.2 to 2 | 59 | –
CN1CCCc2cc(Cl)c(F)c(C(=O)O)c21 [Compound A-40, 6-Chloro-7-fluoro-1-methyl-1,2,3,4-tetrahydroquinoline-8-carboxylic acid] | 0.2 to 2 | 39 | –
O=C(O)c1c(F)c(Cl)cc2c1NCCC2 [Compound A-41, 6-Chloro-7-fluoro-1,2,3,4-tetrahydroquinoline-8-carboxylic acid] | 2 to 10 | 49 | –
O=C(O)c1c(F)c(F)cc2c1SCCC2 [Compound A-42, 6,7-difluoro-3,4-dihydro-2H-1-benzothiopyran-8-carboxylic acid] | 10 to 20 | – | 47
O=C(O)c1c(F)c(F)cc2c1CCCC2 [Compound A-44, 2,3-Difluoro-5,6,7,8-tetrahydronaphthalene-1-carboxylic acid] | 2 to 10 | – | 59
COc1c(C)cc2c(c1C(=O)O)CCC2 [Compound A-47, 5-Methoxy-6-methyl-2,3-dihydro-1H-indene-4-carboxylic acid] | 2 to 10 | – | 37
Cc1cc2c(c(C(=O)O)c1F)SCCC2 [Compound A-48, 7-fluoro-6-methyl-3,4-dihydro-2H-1-benzothiopyran-8-carboxylic acid] | 2 to 10 | 25 | –
Cc1cc2c(c(C(=O)O)c1F)CCCC2 [Compound A-49, 2-Fluoro-3-methyl-5,6,7,8-tetrahydronaphthalene-1-carboxylic acid] | 0.2 to 2 | 40 | –
Cc1cc2c(c(C(=O)O)c1F)OCCC2 [Compound A-50, 7-fluoro-6-methyl-3,4-dihydro-2H-1-benzopyran-8-carboxylic acid] | 2 to 10 | – | 51
CCc1cc2c(c(C(=O)O)c1F)CCCC2 [Compound A-51, 3-Ethyl-2-fluoro-5,6,7,8-tetrahydronaphthalene-1-carboxylic acid] | 2 to 10 | 29 | –
Cc1c(F)cc2c(c1C(=O)O)CCCC2 [Compound A-52, 3-Fluoro-2-methyl-5,6,7,8-tetrahydronaphthalene-1-carboxylic acid] | 2 to 10 | 18 | –
CC1(C)CCc2cc(Cl)cc(C(=O)O)c2O1 [Compound A-53, 6-Chloro-2,2-dimethyl-3,4-dihydro-2H-1-benzopyran-8-carboxylic acid] | 0.2 to 2 | 43 | –
